Key:
[1] = test system: hPLA2-II-induced neuronal cell death; assay: MTT reduction assay of neuronal survival after hPLA2-II treatment; assay type: cell-based, Sprague-Dawley rat
Method: (§1) According to a method disclosed in Neurosci. Lett. 203, 175-178 Ueda K. et al, Neuronal cultures were prepared from cerebral cortex of 19-day-old Sprague-Dawley rat embryos. The cerebral cortices were dissociated in isotonic buffer (137 mM NaCl, 5.4 mM KCl, 0.17 mM Na2HPO4, 0.22 mM KH2PO4, 5.5 mM Glucose, 59 mM Sucrose; volume of each buffer is 25 ml) with 4 mg/ml trypsin and 0.4 mg/ml deoxyribonuclease I. Cells were plated at a density of 2.5×10^5 cells/cm^2 on poly-L-lysine coated dishes in conditioning medium, Leibovitz's L-15 medium supplemented with 5% fetal calf serum and 5% horse serum. Culture medium was exchanged for conditioning medium containing 0.1 mM arabinosylcytosine C on day 1 after plating. Cultured neurons were used for the experiments on day 2 of culture.
For assessment of neurotoxicity of hPLA2-II according to a method disclosed in Neurosci. […] Absorbance at 570 nm were measured with a microplate reader.
[…] MTT reducing activity was determined 48 hr after hPLA2-II-treatment.
At the indicated time after the treatment with hPLA2-II (1 μM), the compound prepared in Example 2 (final concentration=10 μM) was added to the culture medium. Data are expressed as mean±SEM values (n=4). *P<0.05, **P<0.01, compared with vehicle-treated conditions by ANOVA followed by Dunnett's test. […]

[2] = rats after transient middle cerebral artery occlusion; cited from earlier work
cortical neurons = assay: Ultrastructural changes in cortical neurons after hPLA2-II treatment (electron microscope); assay type: cell-based, Sprague-Dawley rat; details: treated for 48 h
Method: as §1
Cells were treated with hPLA2-II for 48 h, and fixed in situ in 1-5% (especially 2.5%) glutaraldehyde in PBS for 2 h at 4° C. and post-fixed in 0.5-2% (especially 1% osmium tetraoxide). To increase contrast, cells were double-fixed in saturated thiocarbohydrazide-osmium. Afterwards, samples were dehydrated using a graded series of ethanol from 50-100%. Tissue culture dishes were embedded in Araldite or Epoxy resin (especially Epon 812), cured in vacuo for 48 h at 60-70° C. and sectioned. […]

With `CCc1c(C(=O)C(N)=O)c2c(OCC(=O)O)cccc2n1Cc1ccccc1` [Example 1, [[3-(2-Amino-1,2-dioxoethyl)-2-ethyl-1-(phenylmethyl)-1H-indol-4-yl]oxy]acetic acid] the “suppression of hPLA2-II-induced neuronal death (MTT reducing activity), co-treatment” value ([1]; 3 μM hPLA2-II, 48 well-cultured neuron, FIG. 4) was “suppressed neuronal death completely depending on its concentration”.

In the case of `CCc1c(C(=O)C(N)=O)c2c(OCC(=O)O)cccn2c1Cc1ccccc1-c1ccccc1` [Example 2, (8-(Carboxymethyloxy)-2-ethyl-3-(o-phenylbenzyl)indolizin-1-yl)glyoxylamide], the “time after hPLA2-II treatment within which post-treatment with compound suppressed neuronal death completely” value ([1]; 1 μM hPLA2-II, compound added at 10 μM final concentration at indicated time after hPLA2-II, FIG. 3) is reported as at most 10 h.

In the case of `CCN(CC)CCCC(C)Nc1c2ccc(Cl)cc2nc2ccc(OC)cc12` (centres unmarked) [quinacrine], the infarct-size [2] is listed as “reduces infarct-size”.

B1: hPLA2-II: human PLA2-II, used to induce neuronal death in cultured cortical neurons (protein, UniProt P14555 21-144, looked up)
Phospholipase A2, membrane …: NLVNFHRMIKLTTGKEAALSYGFYGCHCGVGGRGSPKDATDRCCVTHDCCYKRLEKRGCGTKFLSYKFSNSGSRITCAKQDSCRSQLCECDKAAATCFARNKTTYNKKYQYYSNKHCRGSTPRC
In the case of B1, the “morphology of neurons (cell bodies, neurites) after hPLA2-II treatment” value (cortical neurons; compared with untreated neurons) is reported as “shrank cell bodies and lost their neurites” and the “ultrastructural changes of neurons after hPLA2-II treatment” value (cortical neurons; electron microscope, compared with untreated cells, FIG. 1B) is reported as “condensation and fragmentation of nuclear chromatin, lost of intracellular organelle other than mitochondria and blebbing of plasma membranes”.

— US20030149000A1, “Method for the treatment of disorders associated with apoptosis using N-heterocyclic glyoxylamide compounds” (Shionogi & Co., Ltd., priority 1998, published 2003)
